Literature values in US12667579B2, “Pharmaceutical compositions for clinical nutrition” (BAXTER INTERNATIONAL INC., priority 2021, dated 2026).

What was measured:
[1] = tested on: serum alkaline phosphatases
[2] = compounded with 96 mEq/L of calcium chloride
[3] = ingested orally or enterally

## sodium glycerophosphate [SGP]
acetone
  solubility in acetone: essentially insoluble
ethanol
  solubility in ethanol: essentially insoluble
water
  solubility in water: freely soluble
[1]; individuals with normal serum alkaline phosphatase, hydrolysis completely in plasma
  amount hydrolyzed each day: 12 to 15 mmol
[1]; plasma, hydrolysis to inorganic phosphate and glycerol
  plasma concentration at which maximum hydrolysis occurs: > 700 µM
[2]
  concentration up to which SGP is stable in compounded solutions: up to 120 mmol/L

## [Al] [aluminum]
[3]
  share of ingested aluminum reaching the blood stream: < 1%
